# Legend:
# [1] = target: Voltage-gated inwardly rectifying potassium channel KCNH2 (Homo sapiens, UniProt Q12809); test: SafetyScreen: hERG Human Potassium Ion Channel [3H] Dofetilide Binding Antagonist Radioligand SafetyScreen, catalogue number: 4094; details: at 10 µM, test compound concentration 10 uM
# [2] = target: Muscarinic acetylcholine receptor M3 (Homo sapiens) (UniProt P20309); test: SafetyScreen: M3 Human Acetylcholine (Muscarinic) GPCR Binding Antagonist Radioligand LeadHunter Assay, catalogue number: 95; details: Test compound concentration 10.0 uM
# Sequence of Muscarinic acetylcholine receptor M3 (Homo sapiens) (P20309 whole entry, looked up): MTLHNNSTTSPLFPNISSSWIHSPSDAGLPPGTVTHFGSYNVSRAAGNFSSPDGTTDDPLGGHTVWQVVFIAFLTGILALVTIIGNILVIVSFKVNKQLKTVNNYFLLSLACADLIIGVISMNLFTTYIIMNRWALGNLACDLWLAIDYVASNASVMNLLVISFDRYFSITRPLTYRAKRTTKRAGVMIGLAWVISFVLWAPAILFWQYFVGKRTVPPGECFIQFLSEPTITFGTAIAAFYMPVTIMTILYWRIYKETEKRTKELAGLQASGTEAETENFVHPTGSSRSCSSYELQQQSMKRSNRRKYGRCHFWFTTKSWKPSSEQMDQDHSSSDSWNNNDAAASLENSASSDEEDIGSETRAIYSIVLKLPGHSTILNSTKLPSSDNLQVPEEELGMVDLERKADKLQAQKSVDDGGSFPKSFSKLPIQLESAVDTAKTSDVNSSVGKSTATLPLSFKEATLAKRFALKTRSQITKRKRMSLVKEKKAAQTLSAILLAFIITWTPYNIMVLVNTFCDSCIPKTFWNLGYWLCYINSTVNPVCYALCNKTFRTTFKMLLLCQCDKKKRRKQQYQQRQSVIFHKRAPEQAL
# [3] = target: Sodium-dependent serotonin transporter (Homo sapiens) (UniProt P31645); test: SafetyScreen: SERT Human Serotonin Transporter Binding Antagonist Radioligand LeadHunter Assay, catalogue number: 439; details: Test compound concentration 10.0 uM
# Sequence of Sodium-dependent serotonin transporter (Homo sapiens) (P31645 whole entry, looked up): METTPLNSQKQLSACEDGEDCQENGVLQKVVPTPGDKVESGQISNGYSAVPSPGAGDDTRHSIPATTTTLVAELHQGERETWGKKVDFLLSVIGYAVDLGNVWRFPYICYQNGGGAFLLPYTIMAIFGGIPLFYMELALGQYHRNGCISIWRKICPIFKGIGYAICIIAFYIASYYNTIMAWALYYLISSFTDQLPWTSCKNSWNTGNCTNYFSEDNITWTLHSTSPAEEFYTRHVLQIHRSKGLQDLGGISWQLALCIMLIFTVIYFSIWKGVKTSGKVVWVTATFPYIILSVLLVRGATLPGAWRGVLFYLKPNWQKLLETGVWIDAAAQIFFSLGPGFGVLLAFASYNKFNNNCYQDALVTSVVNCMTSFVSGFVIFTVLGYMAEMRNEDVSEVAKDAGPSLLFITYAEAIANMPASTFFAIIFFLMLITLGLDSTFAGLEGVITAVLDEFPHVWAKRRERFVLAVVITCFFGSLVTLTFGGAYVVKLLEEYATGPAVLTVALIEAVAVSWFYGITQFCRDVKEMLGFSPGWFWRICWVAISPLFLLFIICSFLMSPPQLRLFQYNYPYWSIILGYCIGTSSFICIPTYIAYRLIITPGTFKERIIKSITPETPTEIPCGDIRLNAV
# [4] = target: Adenosine receptor A2a (Homo sapiens) (UniProt P29274); test: SafetyScreen: A2A Human Adenosine GPCR Binding Agonist Radioligand LeadHunter Assay, catalogue number: 4; details: Test compound concentration 10.0 uM
# Sequence of Adenosine receptor A2a (Homo sapiens) (P29274 whole entry): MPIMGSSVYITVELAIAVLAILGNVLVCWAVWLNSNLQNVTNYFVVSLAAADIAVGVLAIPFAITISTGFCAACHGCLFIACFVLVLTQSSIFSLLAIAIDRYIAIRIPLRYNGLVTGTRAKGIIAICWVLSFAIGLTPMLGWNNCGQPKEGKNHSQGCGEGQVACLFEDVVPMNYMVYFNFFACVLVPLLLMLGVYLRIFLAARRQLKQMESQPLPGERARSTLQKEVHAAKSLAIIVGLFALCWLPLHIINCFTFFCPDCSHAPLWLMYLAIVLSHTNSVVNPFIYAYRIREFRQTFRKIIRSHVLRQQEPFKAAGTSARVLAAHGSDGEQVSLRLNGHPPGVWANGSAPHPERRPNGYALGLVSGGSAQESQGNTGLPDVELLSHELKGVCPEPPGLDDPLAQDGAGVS
# [5] = target: T1, Endothelin-1 receptor (Homo sapiens) (UniProt P25101); test: SafetyScreen: ETA Human Endothelin GPCR Binding Agonist Radioligand LeadHunter Assay, catalogue number: 54; details: Test compound concentration 10.0 uM
# T1 sequence (whole entry): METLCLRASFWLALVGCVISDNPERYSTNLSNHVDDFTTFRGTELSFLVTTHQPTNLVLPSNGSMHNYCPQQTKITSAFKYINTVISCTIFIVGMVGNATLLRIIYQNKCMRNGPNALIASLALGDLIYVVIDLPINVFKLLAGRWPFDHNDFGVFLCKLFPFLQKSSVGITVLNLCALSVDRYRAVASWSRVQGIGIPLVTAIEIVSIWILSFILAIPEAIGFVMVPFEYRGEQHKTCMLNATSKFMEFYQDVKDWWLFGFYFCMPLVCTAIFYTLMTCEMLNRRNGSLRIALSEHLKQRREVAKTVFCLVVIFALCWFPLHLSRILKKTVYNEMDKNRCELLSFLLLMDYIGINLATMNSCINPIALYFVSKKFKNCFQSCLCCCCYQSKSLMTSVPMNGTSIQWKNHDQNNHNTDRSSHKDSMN
# [6] = target: T2, Muscarinic acetylcholine receptor M2 (Homo sapiens) (UniProt P08172); test: SafetyScreen: M2 Human Acetylcholine (Muscarinic) GPCR Binding Antagonist Radioligand LeadHunter Assay, catalogue number: 93; details: Test compound concentration 10.0 uM
# T2 sequence (whole entry): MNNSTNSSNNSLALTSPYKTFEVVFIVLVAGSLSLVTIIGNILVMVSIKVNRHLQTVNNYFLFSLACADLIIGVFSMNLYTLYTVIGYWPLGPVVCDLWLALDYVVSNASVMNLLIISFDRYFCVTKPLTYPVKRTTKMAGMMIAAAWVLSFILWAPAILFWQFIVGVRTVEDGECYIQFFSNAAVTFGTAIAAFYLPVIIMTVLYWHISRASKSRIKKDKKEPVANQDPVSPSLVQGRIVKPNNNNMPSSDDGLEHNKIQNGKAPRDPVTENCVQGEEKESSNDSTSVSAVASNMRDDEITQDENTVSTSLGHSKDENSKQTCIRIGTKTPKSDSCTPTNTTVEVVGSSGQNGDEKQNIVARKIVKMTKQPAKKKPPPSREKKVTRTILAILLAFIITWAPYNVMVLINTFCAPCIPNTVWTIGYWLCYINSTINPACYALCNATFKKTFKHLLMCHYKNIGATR
# [7] = target: 5-hydroxytryptamine receptor 1B (Homo sapiens) (UniProt P28222); test: SafetyScreen: 5-HT1B Human Serotonin GPCR Binding Antagonist Radioligand LeadHunter Assay, catalogue number: 4376; details: Test compound concentration 10.0 uM
# Sequence of 5-hydroxytryptamine receptor 1B (Homo sapiens) (P28222 whole entry): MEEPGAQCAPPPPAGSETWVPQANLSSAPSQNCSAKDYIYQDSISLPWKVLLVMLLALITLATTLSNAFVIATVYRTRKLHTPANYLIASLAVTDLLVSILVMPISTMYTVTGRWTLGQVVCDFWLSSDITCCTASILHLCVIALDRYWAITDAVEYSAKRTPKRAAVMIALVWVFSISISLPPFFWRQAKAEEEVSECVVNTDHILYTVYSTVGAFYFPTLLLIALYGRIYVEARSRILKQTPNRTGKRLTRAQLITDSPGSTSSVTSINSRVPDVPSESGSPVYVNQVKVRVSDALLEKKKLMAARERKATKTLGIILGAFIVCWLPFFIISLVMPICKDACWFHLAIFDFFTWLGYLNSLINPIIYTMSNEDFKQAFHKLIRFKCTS
# [8] = target: Kappa-type opioid receptor (Homo sapiens) (UniProt P41145); test: SafetyScreen: kappa (KOP) Human Opioid GPCR Binding Agonist Radioligand LeadHunter Assay, catalogue number: 4461; details: Test compound concentration 10.0 uM
# [9] = target: T3, 5-hydroxytryptamine receptor 1A (Homo sapiens) (UniProt P08908); test: SafetyScreen: 5-HT1A Human Serotonin GPCR Binding Agonist Radioligand LeadHunter Assay, catalogue number: 131; details: Test compound concentration 10.0 uM
# T3 sequence (whole entry): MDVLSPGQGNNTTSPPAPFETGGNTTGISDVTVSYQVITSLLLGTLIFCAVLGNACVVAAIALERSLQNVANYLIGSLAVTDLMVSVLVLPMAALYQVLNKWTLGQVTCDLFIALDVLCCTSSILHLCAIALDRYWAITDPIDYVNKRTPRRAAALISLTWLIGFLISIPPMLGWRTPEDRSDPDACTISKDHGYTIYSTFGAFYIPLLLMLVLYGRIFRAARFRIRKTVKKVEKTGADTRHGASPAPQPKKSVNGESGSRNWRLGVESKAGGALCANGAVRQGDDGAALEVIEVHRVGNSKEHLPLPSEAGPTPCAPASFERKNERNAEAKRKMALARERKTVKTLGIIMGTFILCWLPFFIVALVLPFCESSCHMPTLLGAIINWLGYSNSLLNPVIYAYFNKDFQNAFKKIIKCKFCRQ
# [10] = target: Cannabinoid receptor 1 (Homo sapiens) (UniProt P21554); test: SafetyScreen: CB1 Human Cannabinoid GPCR Binding Agonist Radioligand LeadHunter Assay, catalogue number: 4708; details: Test compound concentration 10.0 uM
# Sequence of Cannabinoid receptor 1 (Homo sapiens) (P21554 whole entry): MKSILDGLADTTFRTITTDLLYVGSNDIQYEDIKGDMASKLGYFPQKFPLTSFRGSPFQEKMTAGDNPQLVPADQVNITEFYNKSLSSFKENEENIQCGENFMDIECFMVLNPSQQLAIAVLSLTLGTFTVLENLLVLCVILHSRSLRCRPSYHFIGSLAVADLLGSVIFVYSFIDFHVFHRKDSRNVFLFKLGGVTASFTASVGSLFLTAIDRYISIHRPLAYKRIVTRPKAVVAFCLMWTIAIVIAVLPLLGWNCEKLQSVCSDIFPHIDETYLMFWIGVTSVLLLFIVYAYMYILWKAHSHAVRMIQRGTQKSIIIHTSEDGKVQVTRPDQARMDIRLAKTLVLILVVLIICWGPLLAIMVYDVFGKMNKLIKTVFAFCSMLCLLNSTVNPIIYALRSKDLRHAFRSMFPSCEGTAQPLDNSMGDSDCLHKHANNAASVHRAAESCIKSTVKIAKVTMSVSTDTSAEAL
# [11] = target: Mu-type opioid receptor (Homo sapiens) (UniProt P35372); test: SafetyScreen: mu (MOP) Human Opioid GPCR Binding Agonist Radioligand LeadHunter Assay, catalogue number: 118; details: Test compound concentration 10.0 uM
# Sequence of Mu-type opioid receptor (Homo sapiens) (P35372 whole entry): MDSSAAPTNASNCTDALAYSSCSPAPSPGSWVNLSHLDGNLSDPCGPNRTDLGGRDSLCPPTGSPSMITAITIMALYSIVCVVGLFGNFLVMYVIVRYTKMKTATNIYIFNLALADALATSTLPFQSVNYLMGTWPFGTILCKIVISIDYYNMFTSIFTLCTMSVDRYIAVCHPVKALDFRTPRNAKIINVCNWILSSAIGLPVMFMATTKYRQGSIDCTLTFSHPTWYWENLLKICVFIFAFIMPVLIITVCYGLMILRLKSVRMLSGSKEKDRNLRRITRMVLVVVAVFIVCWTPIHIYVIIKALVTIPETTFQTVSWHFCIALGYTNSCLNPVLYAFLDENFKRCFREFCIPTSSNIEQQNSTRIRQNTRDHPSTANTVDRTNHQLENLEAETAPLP
# [12] = target: Sodium-dependent dopamine transporter (Homo sapiens) (UniProt Q01959); test: SafetyScreen: DAT Human Dopamine Transporter Binding Antagonist Radioligand LeadHunter Assay, catalogue number: 52; details: Test compound concentration 10.0 uM
# [13] = target: T4, 5-hydroxytryptamine receptor 3A (Homo sapiens) (UniProt P46098); test: SafetyScreen: 5-HT3 Human Serotonin Ion Channel Binding Antagonist Radioligand LeadHunter Assay, catalogue number: 411; details: Test compound concentration 10.0 uM
# T4 sequence (whole entry): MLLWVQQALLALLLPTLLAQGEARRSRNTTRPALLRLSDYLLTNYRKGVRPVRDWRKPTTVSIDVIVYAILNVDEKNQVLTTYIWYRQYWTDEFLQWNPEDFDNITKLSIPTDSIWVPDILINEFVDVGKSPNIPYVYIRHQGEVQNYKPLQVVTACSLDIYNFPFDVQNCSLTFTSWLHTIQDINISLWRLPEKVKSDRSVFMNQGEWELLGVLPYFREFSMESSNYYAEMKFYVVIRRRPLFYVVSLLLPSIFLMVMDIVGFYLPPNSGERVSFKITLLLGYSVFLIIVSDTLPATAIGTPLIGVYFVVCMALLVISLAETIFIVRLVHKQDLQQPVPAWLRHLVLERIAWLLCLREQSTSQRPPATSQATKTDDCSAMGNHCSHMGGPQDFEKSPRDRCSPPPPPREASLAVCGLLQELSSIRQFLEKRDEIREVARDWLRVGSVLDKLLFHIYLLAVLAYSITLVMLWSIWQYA
# [14] = target: 3',5'-cyclic-AMP phosphodiesterase 4D (Homo sapiens) (UniProt Q08499); test: SafetyScreen: PDE4D2 Human Phosphodiesterase Enzymatic LeadHunter Assay, catalogue number: 4077; assay type: functional; details: Test compound concentration 10.0 uM
# [15] = target: cGMP-inhibited 3',5'-cyclic phosphodiesterase 3A (Homo sapiens) (UniProt Q14432); test: SafetyScreen: PDE3A Human Phosphodiesterase Enzymatic LeadHunter Assay, catalogue number: 4072; assay type: functional; details: Test compound concentration 10.0 uM
# [16] = target: Prostaglandin G/H synthase 1 (Homo sapiens) (UniProt P23219); test: SafetyScreen: COX1 Human Cyclooxygenase Enzymatic LeadHunter Assay, catalogue number: 4173; assay type: functional; details: Test compound concentration 10.0 uM
# Sequence of Prostaglandin G/H synthase 1 (Homo sapiens) (P23219 whole entry): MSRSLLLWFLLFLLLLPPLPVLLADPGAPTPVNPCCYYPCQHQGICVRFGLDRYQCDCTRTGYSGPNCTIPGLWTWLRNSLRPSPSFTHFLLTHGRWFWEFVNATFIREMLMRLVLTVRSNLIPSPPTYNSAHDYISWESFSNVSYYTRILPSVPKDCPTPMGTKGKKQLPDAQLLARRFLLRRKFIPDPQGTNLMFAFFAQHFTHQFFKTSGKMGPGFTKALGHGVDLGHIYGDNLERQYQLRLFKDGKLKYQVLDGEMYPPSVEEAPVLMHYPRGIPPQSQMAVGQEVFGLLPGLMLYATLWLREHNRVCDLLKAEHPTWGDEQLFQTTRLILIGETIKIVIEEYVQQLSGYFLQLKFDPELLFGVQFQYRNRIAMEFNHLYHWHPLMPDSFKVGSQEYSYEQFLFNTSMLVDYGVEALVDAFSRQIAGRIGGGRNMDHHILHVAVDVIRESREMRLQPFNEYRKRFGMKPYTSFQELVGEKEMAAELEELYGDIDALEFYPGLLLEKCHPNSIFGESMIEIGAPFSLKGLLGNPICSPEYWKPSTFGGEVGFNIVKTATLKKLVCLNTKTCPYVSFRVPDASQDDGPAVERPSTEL
# Sequence of Voltage-gated inwardly rectifying potassium channel KCNH2 (Q12809 whole entry): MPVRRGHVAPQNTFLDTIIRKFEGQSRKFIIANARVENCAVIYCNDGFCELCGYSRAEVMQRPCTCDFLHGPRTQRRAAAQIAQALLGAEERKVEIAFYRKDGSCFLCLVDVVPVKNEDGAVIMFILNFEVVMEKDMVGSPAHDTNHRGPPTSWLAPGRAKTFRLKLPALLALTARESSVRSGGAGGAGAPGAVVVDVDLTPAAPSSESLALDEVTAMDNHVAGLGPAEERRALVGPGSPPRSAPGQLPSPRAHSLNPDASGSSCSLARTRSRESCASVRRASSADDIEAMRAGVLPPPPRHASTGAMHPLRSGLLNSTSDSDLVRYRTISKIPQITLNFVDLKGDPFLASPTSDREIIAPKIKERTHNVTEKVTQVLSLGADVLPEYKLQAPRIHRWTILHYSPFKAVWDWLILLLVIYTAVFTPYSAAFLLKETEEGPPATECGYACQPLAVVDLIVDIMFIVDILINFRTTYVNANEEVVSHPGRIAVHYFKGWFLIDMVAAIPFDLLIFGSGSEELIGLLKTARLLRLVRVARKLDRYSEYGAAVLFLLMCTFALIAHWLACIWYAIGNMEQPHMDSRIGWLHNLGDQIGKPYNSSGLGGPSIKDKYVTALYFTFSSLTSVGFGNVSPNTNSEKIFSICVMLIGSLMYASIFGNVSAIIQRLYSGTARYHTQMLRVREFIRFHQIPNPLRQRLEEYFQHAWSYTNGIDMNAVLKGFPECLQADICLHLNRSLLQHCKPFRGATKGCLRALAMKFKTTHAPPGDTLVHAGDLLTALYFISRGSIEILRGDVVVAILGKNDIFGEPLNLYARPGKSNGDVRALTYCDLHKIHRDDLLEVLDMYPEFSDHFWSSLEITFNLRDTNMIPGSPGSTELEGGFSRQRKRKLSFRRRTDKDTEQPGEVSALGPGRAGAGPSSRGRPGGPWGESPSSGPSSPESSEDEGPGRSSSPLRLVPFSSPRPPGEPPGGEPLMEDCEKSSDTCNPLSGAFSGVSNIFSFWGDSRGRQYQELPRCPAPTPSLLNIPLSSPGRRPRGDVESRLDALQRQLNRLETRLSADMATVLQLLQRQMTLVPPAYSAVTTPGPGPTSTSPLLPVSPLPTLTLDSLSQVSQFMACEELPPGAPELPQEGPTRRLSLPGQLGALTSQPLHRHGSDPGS
Compound,Inhibition [1] [%],inhibition [2] [%],inhibition [3] [%],inhibition [4] [%],inhibition [5] [%],inhibition [6] [%],inhibition [7] [%],inhibition [8] [%],inhibition [9] [%],inhibition [10] [%],inhibition [11] [%],inhibition [12] [%],inhibition [13] [%],inhibition [14] [%],inhibition [15] [%],inhibition [16] [%]
Cn1ncc(-c2cc3c(N[C@@H](c4ccc5c(n4)OCCO5)C(C)(C)C)ncnc3[nH]2)c1C#N,36,-8,2,52,9,25,18,33,15,33,28,50,3,20,37,
C[C@H](C(=O)O)[C@@H](NC(=O)c1ncnc2[nH]ccc12)c1ccc(Br)cc1,14,-9,0,,-2,-4,1,2,2,,-10,4,2,30,52,14
CC(C)[C@@H](Nc1ncnc2[nH]c(-c3cnn(C)c3C#N)cc12)c1ccc2c(n1)OCCO2,32,1,9,69,5,15,4,56,22,14,77,30,4,44,37,
CNC(=O)Cn1cc(-c2cc3c(N[C@@H](c4ccc5c(c4)S(=O)(=O)CCC5)C(C)C)ncnc3[nH]2)cn1,4,-9,-3,23,-4,7,0,21,13,-10,3,1,5,41,-9,-8
CC(C)[C@H](Nc1ncnc2[nH]c(-c3cnn(C)c3C#N)cc12)c1ccc2c(n1)OCCO2,29,,4,84,42,18,,31,43,46,15,29,6,70,37,
CNCc1cc(-c2cc3c(N[C@@H](c4ccc5c(c4)S(=O)(=O)CCC5)C(C)C)ncnc3[nH]2)co1,,5,24,21,-1,52,45,57,6,3,-5,50,0,43,-5,-6
COc1ccc([C@H](Cc2nnn[nH]2)NC(=O)c2ncnc3[nH]ccc23)cc1,5,,-1,,2,,,2,5,-8,-3,7,6,41,62,17
CC(C)[C@@H](Nc1ncnc2[nH]c(C(=O)N[C@@H]3CCN(C)C3)cc12)c1ccc2c(c1)S(=O)(=O)CCC2,7,-9,1,-4,-6,52,17,78,14,-10,7,22,2,37,4,44
CC(C)[C@H](Nc1ncnc2[nH]ccc12)c1ccc2c(c1)S(=O)(=O)CCC2,20,5,0,11,-1,34,0,84,12,,8,27,8,36,29,85
Cc1nn(C)cc1-c1cc2c(N[C@H](c3ccc4c(c3)S(=O)(=O)CCC4)C(C)C)ncnc2[nH]1,3,-9,-4,13,-4,5,15,45,10,0,28,13,6,43,46,
